{"source": "ChEMBL document CHEMBL3132769", "about": "“Fragment growing to retain or alter the selectivity of anchored kinase hinge-binding fragments” (Medchemcomm, 2014)", "key": {"[1]": {"molecular_target": "Tyrosine-protein kinase ABL2 (Homo sapiens) (UniProt P42684)", "test": "Inhibition of human truncated Arg expressed in baculovirus assessed as substrate phosphorylation using fluorescence-labelled peptides as substrate at 8 uM after 90 mins by microfluidic peptide phosphorylation assay"}, "[2]": {"molecular_target": "Proto-oncogene tyrosine-protein kinase Src (Homo sapiens) (UniProt P12931)", "sequence (P12931 2-536 limits assumed)": "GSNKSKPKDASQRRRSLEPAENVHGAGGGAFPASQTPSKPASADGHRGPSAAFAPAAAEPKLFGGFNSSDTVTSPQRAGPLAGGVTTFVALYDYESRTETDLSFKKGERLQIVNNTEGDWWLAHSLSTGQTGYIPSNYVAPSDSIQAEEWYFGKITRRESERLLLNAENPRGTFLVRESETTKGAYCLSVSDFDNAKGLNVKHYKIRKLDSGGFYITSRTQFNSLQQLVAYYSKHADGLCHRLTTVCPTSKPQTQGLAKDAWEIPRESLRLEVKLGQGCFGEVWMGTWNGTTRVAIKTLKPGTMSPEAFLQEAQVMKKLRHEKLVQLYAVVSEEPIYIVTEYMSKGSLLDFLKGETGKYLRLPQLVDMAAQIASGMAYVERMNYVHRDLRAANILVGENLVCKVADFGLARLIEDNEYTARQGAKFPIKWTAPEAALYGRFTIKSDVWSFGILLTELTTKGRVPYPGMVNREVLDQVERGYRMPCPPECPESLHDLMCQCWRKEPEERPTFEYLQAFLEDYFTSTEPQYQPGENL", "test": "Inhibition of human full length SRC expressed in baculovirus assessed as substrate phosphorylation using fluorescence-labelled peptides as substrate at 0.06 uM after 90 mins by microfluidic peptide phosphorylation assay"}, "[3]": {"molecular_target": "Ribosomal protein S6 kinase alpha-4 (Homo sapiens) (UniProt O75676)", "sequence (O75676 whole entry, looked up)": "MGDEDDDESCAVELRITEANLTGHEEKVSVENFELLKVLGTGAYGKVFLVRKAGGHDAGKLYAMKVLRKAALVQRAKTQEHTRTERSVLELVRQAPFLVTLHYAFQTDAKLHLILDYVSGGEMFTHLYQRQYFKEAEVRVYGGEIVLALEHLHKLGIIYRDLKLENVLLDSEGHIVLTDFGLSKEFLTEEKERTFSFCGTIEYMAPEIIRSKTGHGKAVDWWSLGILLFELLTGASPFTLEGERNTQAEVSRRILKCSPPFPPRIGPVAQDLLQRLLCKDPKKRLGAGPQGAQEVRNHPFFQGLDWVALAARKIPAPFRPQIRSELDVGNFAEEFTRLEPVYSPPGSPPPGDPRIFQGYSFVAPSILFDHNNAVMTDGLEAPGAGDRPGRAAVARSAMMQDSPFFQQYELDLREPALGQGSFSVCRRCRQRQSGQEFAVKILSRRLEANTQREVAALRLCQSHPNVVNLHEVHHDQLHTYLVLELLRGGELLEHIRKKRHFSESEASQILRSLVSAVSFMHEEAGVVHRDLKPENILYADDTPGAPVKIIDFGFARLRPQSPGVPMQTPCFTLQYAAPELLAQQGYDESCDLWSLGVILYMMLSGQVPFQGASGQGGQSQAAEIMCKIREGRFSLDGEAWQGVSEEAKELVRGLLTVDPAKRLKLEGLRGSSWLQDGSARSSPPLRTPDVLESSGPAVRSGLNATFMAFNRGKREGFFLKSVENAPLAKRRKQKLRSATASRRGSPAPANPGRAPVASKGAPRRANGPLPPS", "test": "Inhibition of human full length MSK2 expressed in baculovirus assessed as substrate phosphorylation using fluorescence-labelled peptides as substrate at 0.06 uM after 90 mins by microfluidic peptide phosphorylation assay"}, "[4]": {"molecular_target": "Ribosomal protein S6 kinase alpha-1 (Homo sapiens) (UniProt Q15418)", "sequence (Q15418 whole entry)": "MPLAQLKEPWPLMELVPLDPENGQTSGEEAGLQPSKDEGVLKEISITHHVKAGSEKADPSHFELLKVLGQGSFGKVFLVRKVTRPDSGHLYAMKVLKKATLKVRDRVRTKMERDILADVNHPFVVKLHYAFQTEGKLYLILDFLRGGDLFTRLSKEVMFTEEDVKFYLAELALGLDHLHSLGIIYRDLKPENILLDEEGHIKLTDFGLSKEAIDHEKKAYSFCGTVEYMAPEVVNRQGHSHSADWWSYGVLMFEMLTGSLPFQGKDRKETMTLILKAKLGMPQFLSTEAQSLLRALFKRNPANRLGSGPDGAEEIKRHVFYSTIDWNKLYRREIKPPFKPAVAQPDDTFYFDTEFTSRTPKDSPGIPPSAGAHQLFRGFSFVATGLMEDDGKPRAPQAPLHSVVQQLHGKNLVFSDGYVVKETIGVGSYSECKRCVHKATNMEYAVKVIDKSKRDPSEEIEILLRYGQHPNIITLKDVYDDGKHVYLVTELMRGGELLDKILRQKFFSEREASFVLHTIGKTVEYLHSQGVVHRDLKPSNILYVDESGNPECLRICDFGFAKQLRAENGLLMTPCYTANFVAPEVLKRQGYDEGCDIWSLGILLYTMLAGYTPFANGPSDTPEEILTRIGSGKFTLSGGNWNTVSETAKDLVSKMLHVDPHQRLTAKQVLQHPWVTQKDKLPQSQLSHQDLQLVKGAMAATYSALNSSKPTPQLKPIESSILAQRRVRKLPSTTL", "test": "Inhibition of human full length RSK1 expressed in baculovirus assessed as substrate phosphorylation using fluorescence-labelled peptides as substrate at 0.2 uM after 90 mins by microfluidic peptide phosphorylation assay"}, "[5]": {"test_system": "Tyrosine-protein kinase ABL1 (Homo sapiens), P00519 [H396P]", "test": "Inhibition of human truncated ABL H396P mutant expressed in baculovirus assessed as substrate phosphorylation using fluorescence-labelled peptides as substrate at 0.2 uM after 90 mins by microfluidic peptide phosphorylation assay"}, "[6]": {"molecular_target": "Tyrosine-protein kinase Fer (Homo sapiens) (UniProt P16591)", "test": "Inhibition of human FER catalytic domain expressed in baculovirus assessed as substrate phosphorylation using fluorescence-labelled peptides as substrate at 0.2 uM after 90 mins by microfluidic peptide phosphorylation assay"}, "[7]": {"molecular_target": "RAF proto-oncogene serine/threonine-protein kinase (Homo sapiens) (UniProt P04049)", "test": "Inhibition of human truncated c-Raf expressed in baculovirus assessed as substrate phosphorylation using fluorescence-labelled peptides as substrate at […] after 90 mins by microfluidic peptide phosphorylation assay"}, "[8]": {"molecular_target": "T1, Serine/threonine-protein kinase DCLK2 (Homo sapiens) (UniProt Q8N568)", "T1 sequence (whole entry)": "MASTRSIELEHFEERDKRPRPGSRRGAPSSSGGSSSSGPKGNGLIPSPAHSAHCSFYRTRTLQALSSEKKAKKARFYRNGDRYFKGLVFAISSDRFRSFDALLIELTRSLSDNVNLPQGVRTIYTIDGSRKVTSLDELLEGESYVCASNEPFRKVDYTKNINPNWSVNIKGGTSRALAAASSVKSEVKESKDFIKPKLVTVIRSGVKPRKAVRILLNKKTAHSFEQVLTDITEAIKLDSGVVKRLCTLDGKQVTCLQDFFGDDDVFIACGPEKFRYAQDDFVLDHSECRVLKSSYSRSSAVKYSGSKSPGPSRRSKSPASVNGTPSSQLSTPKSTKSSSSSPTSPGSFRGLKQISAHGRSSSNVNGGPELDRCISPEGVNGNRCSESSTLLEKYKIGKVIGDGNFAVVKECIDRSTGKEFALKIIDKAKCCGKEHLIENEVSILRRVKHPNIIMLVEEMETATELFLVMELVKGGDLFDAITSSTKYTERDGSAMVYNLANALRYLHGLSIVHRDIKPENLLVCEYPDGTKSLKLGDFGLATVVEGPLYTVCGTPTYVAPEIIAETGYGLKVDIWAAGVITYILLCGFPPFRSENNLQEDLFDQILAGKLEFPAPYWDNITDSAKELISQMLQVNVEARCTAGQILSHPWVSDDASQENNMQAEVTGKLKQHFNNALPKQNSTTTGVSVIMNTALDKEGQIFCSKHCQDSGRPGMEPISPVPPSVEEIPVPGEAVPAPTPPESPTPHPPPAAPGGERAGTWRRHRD", "test": "Inhibition of human full length DCAMKL2 expressed in baculovirus assessed as substrate phosphorylation using fluorescence-labelled peptides as substrate at 9 uM after 90 mins by microfluidic peptide phosphorylation assay"}, "[9]": {"molecular_target": "MAP/microtubule affinity-regulating kinase 3 (Homo sapiens) (UniProt P27448)", "test": "Inhibition of human full length c-TAK1 expressed in Escherichia coli cell assessed as substrate phosphorylation using fluorescence-labelled peptides as substrate at 9 uM after 90 mins by microfluidic peptide phosphorylation assay"}, "[10]": {"molecular_target": "Calcium/calmodulin-dependent protein kinase type II subunit beta (Homo sapiens) (UniProt Q13554)", "sequence (Q13554 whole entry)": "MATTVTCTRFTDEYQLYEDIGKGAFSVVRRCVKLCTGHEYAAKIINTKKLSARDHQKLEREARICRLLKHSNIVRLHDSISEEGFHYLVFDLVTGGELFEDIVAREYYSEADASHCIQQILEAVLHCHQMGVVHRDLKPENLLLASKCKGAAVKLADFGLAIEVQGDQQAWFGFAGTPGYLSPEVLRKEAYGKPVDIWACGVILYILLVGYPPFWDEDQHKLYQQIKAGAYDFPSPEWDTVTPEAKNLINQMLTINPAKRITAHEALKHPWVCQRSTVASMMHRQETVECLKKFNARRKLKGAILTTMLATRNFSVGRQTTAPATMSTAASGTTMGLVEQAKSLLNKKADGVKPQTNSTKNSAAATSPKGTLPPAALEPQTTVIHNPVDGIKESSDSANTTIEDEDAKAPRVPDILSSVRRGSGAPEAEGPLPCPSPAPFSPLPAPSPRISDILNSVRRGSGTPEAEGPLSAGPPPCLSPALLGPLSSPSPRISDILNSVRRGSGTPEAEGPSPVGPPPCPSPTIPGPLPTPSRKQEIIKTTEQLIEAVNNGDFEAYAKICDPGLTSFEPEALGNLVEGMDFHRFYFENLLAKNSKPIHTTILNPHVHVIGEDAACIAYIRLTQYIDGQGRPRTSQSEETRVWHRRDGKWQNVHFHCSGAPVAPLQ", "conditions": "0.1 uM", "description": "Inhibition of human CAMK2 beta catalytic domain expressed in baculovirus assessed as substrate phosphorylation using fluorescence-labelled peptides as substrate at 0.1 uM after 90 mins by microfluidic peptide phosphorylation assay"}, "[11]": {"molecular_target": "Glycogen synthase kinase-3 beta (Homo sapiens) (UniProt P49841)", "conditions": "0.1 uM", "description": "Inhibition of human full length GSK-3 beta expressed in baculovirus assessed as substrate phosphorylation using fluorescence-labelled peptides as substrate at 0.1 uM after 90 mins by microfluidic peptide phosphorylation assay"}, "[12]": {"molecular_target": "Serine/threonine-protein kinase MARK1 (Homo sapiens) (UniProt Q9P0L2)", "conditions": "0.1 uM", "description": "Inhibition of human full length MARK1 expressed in baculovirus assessed as substrate phosphorylation using fluorescence-labelled peptides as substrate at 0.1 uM after 90 mins by microfluidic peptide phosphorylation assay"}, "[13]": {"molecular_target": "T2, MAP kinase p38 (Homo sapiens) (UniProt O15264+Q15759+Q16539+P53778)", "T2 sequence (O15264 whole entry, looked up)": "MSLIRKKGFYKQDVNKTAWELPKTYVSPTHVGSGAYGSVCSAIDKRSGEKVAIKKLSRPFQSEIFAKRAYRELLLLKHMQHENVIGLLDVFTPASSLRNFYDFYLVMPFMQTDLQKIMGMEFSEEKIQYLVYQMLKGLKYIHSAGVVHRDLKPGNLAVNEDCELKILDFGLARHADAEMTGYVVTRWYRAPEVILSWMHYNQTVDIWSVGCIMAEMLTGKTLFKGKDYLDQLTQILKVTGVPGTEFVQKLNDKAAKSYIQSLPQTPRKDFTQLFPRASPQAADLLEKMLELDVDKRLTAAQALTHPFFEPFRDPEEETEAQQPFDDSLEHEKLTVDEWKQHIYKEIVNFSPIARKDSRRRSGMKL", "T2 sequence (P53778 whole entry, looked up)": "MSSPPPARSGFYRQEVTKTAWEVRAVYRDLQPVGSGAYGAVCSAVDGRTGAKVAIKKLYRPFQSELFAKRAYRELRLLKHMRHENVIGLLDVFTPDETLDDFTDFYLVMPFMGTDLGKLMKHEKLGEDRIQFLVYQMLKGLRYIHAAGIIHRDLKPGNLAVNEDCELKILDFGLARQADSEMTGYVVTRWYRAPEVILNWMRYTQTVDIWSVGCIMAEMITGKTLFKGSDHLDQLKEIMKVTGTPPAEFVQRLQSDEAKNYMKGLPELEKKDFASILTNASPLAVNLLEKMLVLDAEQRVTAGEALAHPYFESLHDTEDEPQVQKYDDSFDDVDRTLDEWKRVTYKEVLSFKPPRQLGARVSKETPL", "T2 sequence (Q15759 whole entry, looked up)": "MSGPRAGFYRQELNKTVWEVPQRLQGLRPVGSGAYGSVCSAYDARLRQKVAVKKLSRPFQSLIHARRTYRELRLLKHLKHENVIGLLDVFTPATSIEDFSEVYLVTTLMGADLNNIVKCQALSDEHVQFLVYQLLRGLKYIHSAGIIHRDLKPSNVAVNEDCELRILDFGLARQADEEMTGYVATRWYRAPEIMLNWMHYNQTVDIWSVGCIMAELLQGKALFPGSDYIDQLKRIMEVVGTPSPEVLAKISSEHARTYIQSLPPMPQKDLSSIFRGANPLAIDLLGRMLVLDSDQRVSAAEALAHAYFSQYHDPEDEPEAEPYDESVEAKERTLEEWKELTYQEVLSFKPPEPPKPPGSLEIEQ", "T2 sequence (Q16539 whole entry, looked up)": "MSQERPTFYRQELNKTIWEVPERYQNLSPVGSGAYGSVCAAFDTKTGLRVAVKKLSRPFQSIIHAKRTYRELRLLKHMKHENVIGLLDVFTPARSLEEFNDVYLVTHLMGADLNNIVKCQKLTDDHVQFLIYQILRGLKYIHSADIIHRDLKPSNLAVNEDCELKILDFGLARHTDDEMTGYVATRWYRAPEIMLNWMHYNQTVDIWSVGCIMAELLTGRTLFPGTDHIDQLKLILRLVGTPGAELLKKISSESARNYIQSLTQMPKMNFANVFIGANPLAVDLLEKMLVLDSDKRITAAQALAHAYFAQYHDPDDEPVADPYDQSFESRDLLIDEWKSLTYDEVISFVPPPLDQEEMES", "test": "Inhibition of human full length p38 beta2 expressed in Escherichia coli cell assessed as substrate phosphorylation using fluorescence-labelled peptides as substrate at 95 uM after 90 mins by microfluidic peptide phosphorylation assay"}, "[14]": {"molecular_target": "T3, Interleukin-1 receptor-associated kinase 4 (Homo sapiens) (UniProt Q9NWZ3)", "T3 sequence (whole entry)": "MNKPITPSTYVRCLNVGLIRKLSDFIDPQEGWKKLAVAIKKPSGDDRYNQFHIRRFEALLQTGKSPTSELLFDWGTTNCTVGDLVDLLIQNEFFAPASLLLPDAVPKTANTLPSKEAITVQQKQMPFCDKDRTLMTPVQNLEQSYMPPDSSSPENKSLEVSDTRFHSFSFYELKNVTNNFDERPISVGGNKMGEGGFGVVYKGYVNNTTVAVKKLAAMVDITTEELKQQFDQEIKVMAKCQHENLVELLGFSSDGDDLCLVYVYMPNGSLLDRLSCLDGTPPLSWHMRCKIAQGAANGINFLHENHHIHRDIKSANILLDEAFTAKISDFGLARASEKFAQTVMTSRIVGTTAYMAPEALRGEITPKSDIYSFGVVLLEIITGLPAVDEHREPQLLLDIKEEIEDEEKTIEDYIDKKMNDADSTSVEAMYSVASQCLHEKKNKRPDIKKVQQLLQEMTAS", "test": "Inhibition of human IRAK4 catalytic domain expressed in baculovirus assessed as substrate phosphorylation using fluorescence-labelled peptides as substrate at 95 uM after 90 mins by microfluidic peptide phosphorylation assay"}, "[15]": {"molecular_target": "RAC-alpha serine/threonine-protein kinase (Homo sapiens) (UniProt P31749)", "test": "Inhibition of human AKT1 catalytic domain expressed in baculovirus assessed as substrate phosphorylation using fluorescence-labelled peptides as substrate at 95 uM after 90 mins by microfluidic peptide phosphorylation assay"}, "[16]": {"test_system": "Fibroblast growth factor receptor 2 (Homo sapiens), P21802 [N549H]", "sequence (P21802 whole entry N549H, the tested form may be a part)": "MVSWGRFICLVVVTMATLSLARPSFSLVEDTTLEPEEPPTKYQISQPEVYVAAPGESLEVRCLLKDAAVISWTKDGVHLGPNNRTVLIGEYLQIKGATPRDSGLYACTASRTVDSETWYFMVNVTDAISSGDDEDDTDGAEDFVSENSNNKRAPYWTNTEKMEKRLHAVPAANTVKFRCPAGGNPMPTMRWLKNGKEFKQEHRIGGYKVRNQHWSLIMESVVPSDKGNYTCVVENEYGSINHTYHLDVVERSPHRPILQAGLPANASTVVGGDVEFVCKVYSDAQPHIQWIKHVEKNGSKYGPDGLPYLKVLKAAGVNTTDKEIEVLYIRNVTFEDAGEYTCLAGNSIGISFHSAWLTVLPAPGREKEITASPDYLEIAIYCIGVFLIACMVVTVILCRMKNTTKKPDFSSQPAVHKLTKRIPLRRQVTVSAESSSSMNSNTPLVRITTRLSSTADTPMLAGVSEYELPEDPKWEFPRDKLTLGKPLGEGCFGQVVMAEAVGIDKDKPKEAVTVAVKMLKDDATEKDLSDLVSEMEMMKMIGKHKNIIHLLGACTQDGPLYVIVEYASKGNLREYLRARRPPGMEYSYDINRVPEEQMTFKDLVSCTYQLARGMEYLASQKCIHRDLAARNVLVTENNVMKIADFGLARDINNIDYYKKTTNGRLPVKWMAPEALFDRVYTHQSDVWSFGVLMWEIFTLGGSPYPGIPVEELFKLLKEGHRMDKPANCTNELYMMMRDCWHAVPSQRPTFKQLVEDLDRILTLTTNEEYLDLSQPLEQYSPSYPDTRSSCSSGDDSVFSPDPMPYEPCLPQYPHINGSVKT", "test": "Inhibition of human FGFR2 N549H mutant catalytic domain expressed in baculovirus assessed as substrate phosphorylation using fluorescence-labelled peptides as substrate at 1000 uM after 90 mins by microfluidic peptide phosphorylation assay"}, "[17]": {"molecular_target": "T2, MAP kinase p38 (Homo sapiens)", "test": "Inhibition of human full length p38 beta2 expressed in Escherichia coli cell assessed as substrate phosphorylation using fluorescence-labelled peptides as substrate at 1000 uM after 90 mins by microfluidic peptide phosphorylation assay"}}}
{"smiles": "NCC1CCN(c2ncnc3[nH]ccc23)CC1", "values": [{"measurement": "inhibition", "setting": "[1]", "value": 3.5, "unit": "%"}]}
{"smiles": "NC1(Cc2ccc(Cl)cc2)CCN(c2ncnc3[nH]ccc23)CC1", "values": [{"measurement": "inhibition", "setting": "[2]", "value": 0, "unit": "%"}, {"measurement": "inhibition", "setting": "[3]", "value": 0, "unit": "%"}]}
{"smiles": "Clc1ccc(C2(c3ccc(-c4ncnc5[nH]cnc45)cc3)CCNCC2)cc1", "values": [{"measurement": "inhibition", "setting": "[4]", "value": 38, "unit": "%"}, {"measurement": "inhibition", "setting": "[5]", "value": 4.5, "unit": "%"}, {"measurement": "inhibition", "setting": "[6]", "value": 2.5, "unit": "%"}]}
{"smiles": "COC(=O)c1cnc(Nc2cnc(C#N)cn2)cc1NCC1CCNCC1", "values": [{"measurement": "inhibition", "setting": "[7]", "value": 7, "unit": "%"}]}
{"smiles": "NCC1CN(c2ncnc3[nH]c4cnccc4c23)CCO1", "note": "(configuration not stated)", "values": [{"measurement": "inhibition", "setting": "[8]", "value": 3, "unit": "%"}, {"measurement": "inhibition", "setting": "[9]", "value": 30, "unit": "%"}]}
{"smiles": "C[C@H](CN(C)C)Oc1nc(Nc2cc3cccc(Cl)c3cn2)cnc1C#N", "values": [{"measurement": "inhibition", "setting": "[10]", "value": 0, "unit": "%"}, {"measurement": "inhibition", "setting": "[11]", "value": 0, "unit": "%"}, {"measurement": "inhibition", "setting": "[12]", "value": 0, "unit": "%"}]}
{"smiles": "NCCc1ccc(-c2ncnc3[nH]cnc23)cc1", "values": [{"measurement": "inhibition", "setting": "[13]", "value": 11, "unit": "%"}, {"measurement": "inhibition", "setting": "[14]", "value": 34, "unit": "%"}, {"measurement": "inhibition", "setting": "[15]", "value": 81, "unit": "%"}]}
{"smiles": "c1cnc2[nH]ccc2c1", "values": [{"measurement": "inhibition", "setting": "[16]", "value": 42, "unit": "%"}, {"measurement": "inhibition", "setting": "[17]", "value": 0, "unit": "%"}]}
